Reference: patent publication US20060100264A1, “3,3'-Diindolylmethane immune activating compositions” (priority 2004, published 2006)

Legend:
IFNGR1 protein = conditions: previous studies (ref 27), cited from earlier work
[1] = system: DMBA-induced mammary tumors; conditions: single oral dose prior to carcinogen, rats; cited from earlier work
[2] = system: OAS-Luc reporter (promoter and 5′-flanking region of p69-OAS); assay: OAS-Luc luciferase reporter in transiently transfected MCF-7 cells; format: cell-based, human; conditions: 24 h treatment
Protocol: (§1) In a further experiment to examine whether the inducing effects of DIM are at the transcriptional level, the effect of DIM on activities of two luciferase reporter constructs, OAS-Luc (12) and 4GAS-Luc (13) was examined. OAS-Luc contains the promoter and 5′-flanking region (−972) of p69-OAS and GAS-Luc contains four repeats of the consensus GAS element. MCF-7 cells transiently transfected with these reporter constructs were treated with IFNγ, DIM, or a combination of both for 24 h. […] IFNγ induced transcriptional activity of this reporter in a concentration dependent manner to a maximum of about 1.8 fold, which is less than the response of the endogenous gene of about 5.0 fold. In marked contrast to the maximum effects of combined treatments of the inducers on endogenous gene expression (nearly 12-fold increase compared to vehicle treated cells), the reporter gene construct responded with less than a 3-fold increase over the controls.

[3] = system: 4GAS-Luc reporter (four repeats of the consensus GAS element); assay: 4GAS-Luc luciferase reporter in transiently transfected MCF-7 cells; format: cell-based, human; conditions: DIM 50 μM, IFNγ concentration dependent, maximum
Protocol: as §1
Thus, treatment with DIM (50 μM) by itself again produced a 2 to 3-fold increase in activity of this reporter. IFNγ treatments, however, produced a robust concentration dependent increase in reporter activity to approximately 40-fold induction compared to vehicle treated controls. […]

GAS element = assay: Electrophoretic gel mobility shift assay, STAT1 binding to GAS element; format: cell-based, human; conditions: DIM pretreatment for various times, IFNγ 30 min
Protocol: An electrophoretic gel mobility shift assay was used to verify that the phosphorylated STAT1 was effectively activated to a dimer that could bind to the GAS element. The ^32P-labeled DNA probe containing a GAS sequence was incubated with nuclear extracts from cells pretreated with DIM for various times as indicated, and with IFNγ for 30 min. […] When samples were incubated with an antibody specific to STAT1, the band was super-shifted, confirming the identity of the protein binding to the labeled GAS probe.

MCF-7 cells [4] = assay: Cell proliferation over a 4-day treatment period; format: cell-based, human
Protocol: Functional consequences of the synergistic effects of DIM and IFNγ on gene expression were examined at the level of proliferation rates. Cell proliferation was measured over a 4-day treatment period with treatments with DIM, IFNγ, or both substances, and compared to a DMSO control. With heat-treated serum, IFNγ alone reduced cell proliferation by as much as 70% compared to controls. DIM treatments reduced proliferation by as much as 60%. […] These effects were accompanied by morphological changes characteristic of apoptosis.

MCF-7 cells [5] = assay: Flow cytometry of cell cycling (G1 phase); format: cell-based, human; conditions: up to 3 days; control approximately 50% in G1
Source text: Flow cytometry was used to determine the effects of DIM and IFNγ on cell cycling. […] In control groups approximately 50% of the cells were in G1. Treatment with IFNγ alone caused a small progressive increase in G1 blocked cells of up to 10% above the DMSO control, after 3 days.

MHC-I complex = assay: Flow cytometry of cell surface MHC-I expression (FITC-conjugated HLA-ABC antibody); format: cell-based, human
Protocol: Induced expression of the MHC-I complex is a well-established and important down-stream target of IFNγ-mediated signal transduction. To examine further the possible synergistic effects of DIM on a significant metabolic product of IFNγ signaling, we tested the effects of co-treatment with DIM on IFNγ induced expression of MHC-I complex in MCF-7 cells.
Flow cytometry analysis of cell surface MHC-I expression was conducted using FITC-conjugated HLA-ABC antibody. In an initial control experiment, cultured MCF-7 cells were pre-treated with 30 μM DIM for 48 hours and then with or without 10 ng/mL IFNγ for another 16 hours. […] In a subsequent experiment in which cells were treated with a range of IFNγ concentrations and analyzed with the anti-MHC-I antibody, a strong signal indicative of IFNγ-induced MHC-I expression was detectable at 0.1 ng/mL and appeared to plateau at 10 ng/mL. In cells treated with vehicle control only, MHC-I expression was not detected in greater than 99% of cells.
Exposure to DIM of cells treated with 10 ng/mL of IFNγ, about 95% of which expressed MHC-I, produced a strong time dependent increase in MFV from 76.04 to 131.41. […] As expected, addition of an IFNγ blocking antibody into the medium before the treatments abrogated the inducing effects of co-treatments of IFNγ and DIM on MHC-I expression, confirming the requirement of the cytokine for the observed effects.

MHC-II = MHC-II expression in MCF-7 cells; format: cell-based, human
Source text: In an analogous further experiment, we observed no effect of DIM or IFNγ on MHC-II expression in the MCF-7 cells.

[6] = system: HLA-A, HLA-B, HLA-C, β-microtubulin, TAP1 and TAP2; assay: RT-PCR of MHC-I components and transporters in MCF-7 cells; format: cell-based, human
Source text: RT-PCR was used to examine the expression of the four major components of human MHC-I, including HLA-A, HLA-B, HLA-C, and β-microtubulin, as well as two important associated transporters, TAP1 and TAP2. […] As expected, the expressions of these genes were increased 2-8 fold by treatment with IFNγ.

Band-shift of 32P-labeled GAS probe with nuclear extracts (GAS element) | Molecule | IFNGR1 receptor expression increase (IFNGR1 protein; 24 hours of treatment with I3C) | Maximum level of IFNGR1 protein induction (IFNGR1 protein; I3C) | Time at which maximum IFNGR1 protein induction was reached (IFNGR1 protein; I3C) | Reduction of incidence and multiplicity of DMBA-induced mammary tumors [1] | Maximum induction of OAS-Luc reporter [2] | Induction of 4GAS-Luc reporter activity compared to vehicle treated controls [3] | Reduction of cell proliferation compared to controls (MCF-7 cells [4]; 4-day treatment, heat-treated serum) [%] | Effect on proliferation of cells grown in unheated serum (MCF-7 cells [4]; unheated serum) | Increase in G1 blocked cells above the DMSO control (MCF-7 cells [5]) | Percentage of MHC-I positive cells (MHC-I complex; 0.1 ng/mL IFNγ, without or with 30 μM DIM pretreatment for 48 h) [%] | MHC-I expression/cell (MFV) (MHC-I complex; 10 ng/mL IFNγ, without or with exposure to DIM) | Cells which expressed MHC-I (MHC-I complex; 10 ng/mL of IFNγ) | IFNγ concentration at which MHC-I signal appeared to plateau (MHC-I complex; MCF-7 cells) [ng/mL] | IFNγ concentration at which induced MHC-I expression was detectable (MHC-I complex; MCF-7 cells) [ng/mL] | Effect on MHC-II expression (MHC-II) | Expression levels of the six genes (MHC-I components, TAP1, TAP2) above vehicle/background [6]
– | OCc1c[nH]c2ccccc12 [I3C, indole-3-carbinol] | about 3 fold | about 7 fold | about 48 hours | 70-80% | – | – | – | – | – | – | – | – | – | – | – | –
produced a band-shift | IFNγ: Type II IFN, interferon-γ or the immune interferon, a cytokine | – | – | – | – | about 1.8 fold | approximately 40 fold | ≤ 70 | no significant effect | up to 10% | 8.11 | 76.04 | about 95% | 10 | 0.1 | no effect | 2-8 fold
